# Entries after “also recorded” stand apart in the source; their conditions may differ. Where two headings read alike, the source gives them in different places.
# Experiments:
# Format in all cases: physicochemical
# [1] = Stressing under various relative humidities / temperature and vacuum, resulting solid form by XRPD
# Protocol: The jar was sealed and stored at either ambient temperature or in an oven at elevated temperature.
# (§1) X-ray powder diffraction (XRPD) analyses were performed using an Inel XRG-3000 diffractometer equipped with a CPS (Curved Position Sensitive) detector with a […] of 120°. Real time data were collected using Cu—Kα radiation. The tube voltage and amperage were set to 40 kV and 30 mA, respectively. The monochromator slit was set at 1-5 mm by 160 μm. […] Samples were prepared for analysis by packing them into thin-walled glass capillaries. Each capillary was mounted onto a goniometer head that is motorized to permit spinning of the capillary during data acquisition. The samples were analyzed for 300 seconds. Instrument calibration was performed using a silicon reference standard.
# Samples were also analyzed using a PANalytical X'Pert Pro diffractometer. The specimen was analyzed using Cu radiation produced using an Optix long fine-focus source. An elliptically graded multilayer mirror was used to focus the Cu K α X-rays of the source through the specimen and onto the detector. The specimen was sandwiched between 3-micron thick films, analyzed in transmission geometry, and rotated to optimize orientation statistics. A beam-stop and a helium purge were used to minimize the background generated by air scattering. Soller slits were used for the incident and diffracted beams to minimize axial divergence. Diffraction patterns were collected using a scanning position-sensitive detector (X'Celerator) located 240 mm from the specimen […] a silicon specimen (NIST standard reference material 640c) was analyzed to verify the position of the silicon 111 peak.
# [2] = Rifaximin drying experiments, resulting solid form by XRPD
# Protocol: as §1
# [3] = Moisture sorption/desorption (dynamic vapor sorption, DVS); conditions: for weight gain from 5 to 95% RH / weight gain (adsorption) from 5 to 95% RH: sorption 5 to 95% RH; for Post-DVS XRPD (solid form after moisture sorption): specimen after DVS cycle 5-95-5% RH; for hygroscopicity (in words): from moisture sorption/desorption
# Protocol: Automated vapor sorption (VS) data were collected on a VTI SGA-100 Vapor Sorption Analyzer. NaCl and PVP were used as calibration standards. Samples were not dried prior to analysis. Sorption and desorption data were collected over a range from 5 to 95% RH at 10% RH increments under a nitrogen purge. The equilibrium criterion used for analysis was less than 0.0100% weight change in 5 minutes with a maximum equilibration time of 3 hours. Data were not corrected for the initial moisture content of the samples.
# Moisture sorption/desorption data were collected on a VTI SGA-100 Vapor Sorption Analyzer. Sorption and desorption data were collected over a range of 5% to 95% relative humidity (RH) at 10% RH intervals under a nitrogen purge. Samples were not dried prior to analysis. Equilibrium criteria used for analysis were less than 0.0100% weight change in 5 minutes, with a maximum equilibration time of 3 hours if the weight criterion was not met. Data were not corrected for the initial moisture content of the samples. NaCl and PVP were used as calibration standards.
smiles,measurement,setting,value
"CO[C@H]1/C=C/O[C@@]2(C)Oc3c(C)c(O)c4c(O)c(c5c(nc6cc(C)ccn65)c4c3C2=O)NC(=O)/C(C)=C\C=C\[C@H](C)[C@H](O)[C@@H](C)[C@@H](O)[C@@H](C)[C@H](OC(C)=O)[C@@H]1C [Form Zeta, Rifaximin]",XRPD Form after stressing,"[1]; 43% RH, 3 days, room temperature",conversion to Form γ
same,XRPD Form after stressing,"[1]; 43% RH, 3 days, room temperature, listed as Form ζ",conversion to Form γ
same,XRPD Form after stressing,"[1]; 43% RH, 3 days, room temperature, listed as ζ",γ
same,form after exposure to humidity (XRPD),"[1]; 51% RH (RT), ~20 min",converts to Form Mu
same,form after exposure to humidity (XRPD),"[1]; 51% RH (RT), ~20 min, listed as ζ",μ
same,XRPD Form after stressing,"[1]; 58% RH, 3 days, room temperature, listed as ζ",ζ
same,XRPD Form after stressing,"[1]; 75% RH, 3 days, room temperature, listed as ζ",ζ
same,XRPD Form after stressing,"[1]; 94% RH, 3 days, room temperature, listed as Form ζ",Form γ+γ−1
same,XRPD Form after stressing,"[1]; 94% RH, 3 days, room temperature, listed as ζ",β + ζ
same,XRPD Form after stressing,"[1]; stability chamber 75% RH @40° C., 1 day",ζ + Y
same,XRPD Form after drying,[2]; air dry,γ
same,XRPD Form after drying,[2]; open vial in hood,γ
same,XRPD Form after storage,[2]; stored in refrigerator 3 weeks,ζ
same,XRPD Form after drying,[2]; vac dry,γ + η
same,XRPD Form after drying,"[2]; vac oven / under vacuum, ambient, 1 day",Form η
same,XRPD Form after drying,"[2]; vac oven / under vacuum, ambient, 1 day, listed as ζ",η
same,XRPD Form after drying,"[2]; vac oven, 40° C., 1 day",remained unchanged
same,XRPD Form after drying,"[2]; vac oven, 45° C., 2 days",η
"CO[C@H]1/C=C/O[C@@]2(C)Oc3c(C)c(O)c4c(O)c(c5c(nc6cc(C)ccn65)c4c3C2=O)NC(=O)/C(C)=C\C=C\[C@H](C)[C@H](O)[C@@H](C)[C@@H](O)[C@@H](C)[C@H](OC(C)=O)[C@@H]1C [Form Theta, Rifaximin, reference compound]",form after exposure to humidity (XRPD),"[1]; 75% RH (40° C.), 6 hrs",μ + η
same,form after exposure to humidity (XRPD),"[1]; 75% RH (RT), 6 hrs",convert at least partially to Form μ
same,form after exposure to humidity (XRPD),"[1]; 75% RH (RT), 6 hrs, listed as Rifaximin Form Theta",convert to Form μ
same,form after exposure to humidity (XRPD),"[1]; 75% RH (RT), 6 hrs, listed as θ",μ + ι
"CO[C@H]1/C=C/O[C@@]2(C)Oc3c(C)c(O)c4c(O)c(c5c(nc6cc(C)ccn65)c4c3C2=O)NC(=O)/C(C)=C\C=C\[C@H](C)[C@H](O)[C@@H](C)[C@@H](O)[C@@H](C)[C@H](OC(C)=O)[C@@H]1C [Form Eta, Rifaximin]",XRPD Form after drying,"[2]; vac oven, 40° C., 1 day, listed as η",η
"CO[C@H]1/C=C/O[C@@]2(C)Oc3c(C)c(O)c4c(O)c(c5c(nc6cc(C)ccn65)c4c3C2=O)NC(=O)/C(C)=C\C=C\[C@H](C)[C@H](O)[C@@H](C)[C@@H](O)[C@@H](C)[C@H](OC(C)=O)[C@@H]1C [Form Mu, Rifaximin]",XRPD result after stress,"[1]; 59-62° C./Vacuum, ~24 hours",γ
same,XRPD result after stress,"[1]; 60° C./Vacuum, ~24 hours, listed as Form μ",irreversibly desolvates to Form Gamma; also recorded: irreversibly desolvates to Form γ
same,XRPD result after stress,"[1]; 60° C./Vacuum, ~24 hours, listed as Rifaximin Form μ",γ
same,XRPD result after stress,"[1]; 97% RH (RT), 16 days, listed as Form μ",converted to Form Beta
same,XRPD result after stress,"[1]; 97% RH (RT), 16 days, listed as Rifaximin Form μ",μ + β
same,weight loss from 95 to 5% RH,"[3]; DVS, desorption 95 to 5% RH, listed as rifaximin Form μ",9.3%
same,initial weight loss upon equilibration at 5% RH,"[3]; DVS, equilibration at 5% RH, listed as rifaximin Form μ",11.0%
same,weight gain from 5 to 95% RH,"[3]; DVS, listed as rifaximin Form μ",9.5%
same,% wt lost from 95%-5% RH,"[3]; moisture balance, desorption",9.3 % wt lost from 95%-5% RH
same,% wt change upon equilibration at 5% RH,"[3]; moisture balance, equilibration at 5% RH, signed change",−11.0 % wt change upon equilibration at 5% RH
same,% wt gain from 5%-95% RH,"[3]; moisture balance, sorption",9.5 % wt gain from 5%-95% RH
same,Post-DVS XRPD (solid form after moisture sorption),[3]; listed as Rifaximin Form Mu,Form γ
same,Post-DVS XRPD (solid form after moisture sorption),[3]; listed as rifaximin Form μ,converted to Form Gamma
"CO[C@H]1/C=C/O[C@@]2(C)Oc3c(C)c(O)c4c(O)c(c5c(nc6cc(C)ccn65)c4c3C2=O)NC(=O)/C(C)=C\C=C\[C@H](C)[C@H](O)[C@@H](C)[C@@H](O)[C@@H](C)[C@H](OC(C)=O)[C@@H]1C [α, Rifaximin, reference compound]",XRPD Form after stressing,"[1]; P205, 4 days, room temperature",α dry
"CO[C@H]1/C=C/O[C@@]2(C)Oc3c(C)c(O)c4c(O)c(c5c(nc6cc(C)ccn65)c4c3C2=O)NC(=O)/C(C)=C\C=C\[C@H](C)[C@H](O)[C@@H](C)[C@@H](O)[C@@H](C)[C@H](OC(C)=O)[C@@H]1C [Form Omicron, Rifaximin]",wt % change on equilibration at 5% RH,[3],−15.0 wt % change on equilibration at 5% RH
same,initial weight loss at 5% RH upon equilibration,"[3]; DVS, equilibration at 5% RH, listed as Rifaximin Form Omicron",~15 wt %
same,Post-DVS XRPD (solid form after moisture sorption),[3]; listed as Rifaximin Form Omicron,Form Iota with a significant amount of disorder
"CO[C@H]1/C=C/O[C@@]2(C)Oc3c(C)c(O)c4c(O)c(c5c(nc6cc(C)ccn65)c4c3C2=O)NC(=O)/C(C)=C\C=C\[C@H](C)[C@H](O)[C@@H](C)[C@@H](O)[C@@H](C)[C@H](OC(C)=O)[C@@H]1C [Form Gamma, Rifaximin, reference compound]",XRPD Form after drying,"[2]; vac oven / under vacuum, ambient, 1 day, listed as Form γ",remained unchanged
same,weight loss from 95 to 5% RH,"[3]; DVS, desorption 95 to 5% RH, listed as Rifaximin Form Gamma",11.7%
same,initial weight loss upon equilibration at 5% RH,"[3]; DVS, equilibration at 5% RH, listed as Rifaximin Form Gamma",2.4%
same,weight gain from 5 to 95% RH,"[3]; DVS, listed as Rifaximin Form Gamma",10.8%
same,hygroscopicity (in words),[3]; listed as Rifaximin Form Gamma,hygroscopic
"CO[C@H]1/C=C/O[C@@]2(C)Oc3c(C)c(O)c4c(O)c(c5c(nc6cc(C)ccn65)c4c3C2=O)NC(=O)/C(C)=C\C=C\[C@H](C)[C@H](O)[C@@H](C)[C@@H](O)[C@@H](C)[C@H](OC(C)=O)[C@@H]1C [Form Pi, Rifaximin]",weight lost from 95 to 5% RH,"[3]; DVS, desorption 95 to 5% RH",11.3 wt % lost from 95 to 5% RH
same,weight loss from 95 to 5% RH,"[3]; DVS, desorption 95 to 5% RH, listed as Rifaximin Form Pi",11.3%
same,initial weight loss at 5% RH upon equilibration,"[3]; DVS, equilibration at 5% RH",1.3 wt %
same,wt % change on equilibration at 5% RH,"[3]; DVS, equilibration at 5% RH, signed change",−1.3 wt % change on equilibration at 5% RH
same,weight gain (adsorption) from 5 to 95% RH,"[3]; DVS, listed as Rifaximin Form Pi",10.5 wt %
same,weight gain (adsorption) from 5 to 95% RH,"[3]; DVS, listed as Rifaximin Pi",10.5 wt % gain from 5 to 95% RH
same,hygroscopicity (in words),[3]; listed as Rifaximin Form Pi,reversibly hygroscopic
same,Post-DVS XRPD (solid form after moisture sorption),[3]; listed as Rifaximin Form Pi,Form Pi
same,Post-DVS XRPD (solid form after moisture sorption),[3]; listed as Rifaximin Pi,Pi
"CO[C@H]1/C=C/O[C@@]2(C)Oc3c(C)c(O)c4c(O)c(c5c(nc6cc(C)ccn65)c4c3C2=O)NC(=O)/C(C)=C\C=C\[C@H](C)[C@H](O)[C@@H](C)[C@@H](O)[C@@H](C)[C@H](OC(C)=O)[C@@H]1C [Form Xi, Rifaximin]",weight loss from 95 to 5% RH,"[3]; DVS, desorption 95 to 5% RH, listed as rifaximin Form Xi",10.5%
same,initial weight loss upon equilibration at 5% RH,"[3]; DVS, equilibration at 5% RH, listed as rifaximin Form Xi",7.2%
same,weight gain from 5 to 95% RH,"[3]; DVS, listed as rifaximin Form Xi",7.9%
same,Post-DVS XRPD (solid form after moisture sorption),[3]; listed as rifaximin Form Xi,became disordered
"CO[C@H]1/C=C/O[C@@]2(C)Oc3c(C)c(O)c4c(O)c(c5c(nc6cc(C)ccn65)c4c3C2=O)NC(=O)/C(C)=C\C=C\[C@H](C)[C@H](O)[C@@H](C)[C@@H](O)[C@@H](C)[C@H](OC(C)=O)[C@@H]1C [α dry, Rifaximin, reference compound]",XRPD Form after stressing,"[1]; 58% RH, 2 days, room temperature",β
same,XRPD Form after stressing,"[1]; 75% RH, 2 days, room temperature",β
same,XRPD Form after stressing,"[1]; 94% RH, 2 days, room temperature",β

# — US9133217B2 (Salix Pharmaceuticals, Ltd, priority 2011, dated 2015)
